Laboratory results: patent US11730741B2, “6-chromanol derivatives for use as a medicament” (Sulfateq B.V., priority 2017, dated 2023)
Marks after values point to notes of the source that are not given here.

Assays:
[1] = system: experimental in vivo models of COPD; conditions: cited from earlier work
[2] = screening of a range of SUL compounds including trolox; cited from earlier work
[3] = system: isolated porcine intrarenal arteries; experiment: Myography: phenylephrine-induced constriction of isolated porcine intrarenal arteries; conditions: 30 min pre-incubation
Procedure: Porcine kidneys were obtained from a local slaughterhouse (Kroon Vlees, Gotenburgweg 30, 9723 ™ Groningen, The Netherlands) and transported on ice in normal physiological Krebs buffer containing 120 mM NaCl, 6 mM KCl, 2.5 mM CaCl2×2H2O, 1.2 mM MgCl2×6H2O, 1.2 mM NaH2PO4×H2O, 25 mM NaHCO3 and 11.4 mM D-(+)-Glucose monohydrate (all ingredients were purchased from Merck) in ultrapure water.
The renal artery tree was dissected from the kidney, cleaned of surrounding connective tissue and cut into equally-sized ring segments (2 mm in length). In some rings, endothelium denudation was performed by gentle rubbing of the intimal surface with a paper clip. Rings were mounted in organ baths as described previously (Buikema et al., 2000).
Arterial rings were washed thoroughly by replacing Krebs buffer and allowed to equilibrate for a period of 60 min under 1.4 g of resting tension before they were assessed for viability by inducing 2 subsequent constrictions with KCl (60 mM). […] After washout and stabilization, rings were treated for 30 minutes by incubation with vehicle (0.1% DMSO), SUL-121, SUL-150 or SUL-151, followed by subsequent incubation with cumulative doses of phenylephrine.
Dose-dependent constriction responses to phenylephrine (10^−8M-10^−4M) were recorded in isolated porcine intrarenal arteries. Buffer was warmed to 37° C. and aerated with 95% O2 and 5% CO2 before use.
Vascular constriction responses are expressed as percentage of final response to KCl. Data are expressed as mean±SEM. *p<0.05.
To explore the effects of 2R and 2S-(6-hydroxy-2,5,7,8-tetramethylchroman-2-yl)(piperazin-1-yl)methanone (resp. SUL-150 and SUL-151) on constriction of isolated porcine intrarenal arteries, cumulative dose response curves to the α1 adrenoceptor agonist phenylephrine (PE) were constructed in the presence and absence of SUL-150 resp SUL-151 (FIG. 1).

[4] = molecular target: T1, human α1 adrenoceptor subtype A (Homo sapiens, UniProt P35348); experiment: Intracellular calcium assay (FLIPR Calcium 6), phenylephrine-stimulated CHO cells overexpressing α1A adrenoceptor; format: cell-based; conditions: for logEC50 of phenylephrine-induced calcium influx, α1A: 30 min at 37° C.
T1 construct: expressed in transfected cells; host or cells: CHO-K1
T1 sequence (P35348 1-466): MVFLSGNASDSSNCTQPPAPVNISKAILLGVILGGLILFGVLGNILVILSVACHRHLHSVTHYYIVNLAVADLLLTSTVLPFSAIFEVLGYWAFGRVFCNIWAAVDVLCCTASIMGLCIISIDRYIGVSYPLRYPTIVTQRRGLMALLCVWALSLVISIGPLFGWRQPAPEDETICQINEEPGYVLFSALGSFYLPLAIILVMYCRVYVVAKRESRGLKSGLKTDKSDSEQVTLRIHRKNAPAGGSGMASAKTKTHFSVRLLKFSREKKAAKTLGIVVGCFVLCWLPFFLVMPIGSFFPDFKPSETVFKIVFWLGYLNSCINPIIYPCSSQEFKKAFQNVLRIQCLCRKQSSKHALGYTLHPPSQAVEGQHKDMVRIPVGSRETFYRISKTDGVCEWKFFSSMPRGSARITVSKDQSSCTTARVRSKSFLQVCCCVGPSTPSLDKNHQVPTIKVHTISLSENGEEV
Procedure: (§1) CHO—K1 cells were stably transfected with a plasmid containing human α1-AR subtypes A, B and D in separate cell lines in DMEM-F12 medium with 10% FBS, 1% penicillin-streptomycin and 200 μg/mL Geneticin (G418, Invitrogen, Carlsbad, Calif.).
(§2) On the next day, CHO cells were treated with either vehicle (0.1% DMSO) or SUL-150 resp. SUL-151 for 30 min at 37° C. and stimulated with a 3-fold dilution series of PE ([…]). [Ca^2+]i was measured using the fluorescent FLIPR Calcium 6 assay kit (Molecular Devices) in immortalized CHO cells stably expressing the α1 adrenoceptor.
(§3) Initially, calcium responses induced by non-cumulative concentration series of phenylephrine were investigated using fluorescent measurements in α1A adrenoceptor-overexpressing CHO cells treated with SUL-150 and SUL-151 (FIG. 4). Fluorescent measurement data was processed and analyzed in SoftMax Pro 7 and expressed as % of baseline AUC with a 3-fold multiplier using an average of first 10 measurement points as baseline.
(§4) The “Vehicle” used in all experiments is 0.1% DMSO solution.

[5] = molecular target: T2, human α1 adrenoceptor subtype B (Homo sapiens, UniProt P35368); experiment: Intracellular calcium assay (FLIPR Calcium 6), phenylephrine-stimulated CHO cells overexpressing α1B adrenoceptor; format: cell-based; conditions: for logEC50 of phenylephrine-induced calcium influx, α1B: 30 min at 37° C.
T2 construct: expressed in transfected cells; host or cells: CHO-K1
T2 sequence (P35368 1-520): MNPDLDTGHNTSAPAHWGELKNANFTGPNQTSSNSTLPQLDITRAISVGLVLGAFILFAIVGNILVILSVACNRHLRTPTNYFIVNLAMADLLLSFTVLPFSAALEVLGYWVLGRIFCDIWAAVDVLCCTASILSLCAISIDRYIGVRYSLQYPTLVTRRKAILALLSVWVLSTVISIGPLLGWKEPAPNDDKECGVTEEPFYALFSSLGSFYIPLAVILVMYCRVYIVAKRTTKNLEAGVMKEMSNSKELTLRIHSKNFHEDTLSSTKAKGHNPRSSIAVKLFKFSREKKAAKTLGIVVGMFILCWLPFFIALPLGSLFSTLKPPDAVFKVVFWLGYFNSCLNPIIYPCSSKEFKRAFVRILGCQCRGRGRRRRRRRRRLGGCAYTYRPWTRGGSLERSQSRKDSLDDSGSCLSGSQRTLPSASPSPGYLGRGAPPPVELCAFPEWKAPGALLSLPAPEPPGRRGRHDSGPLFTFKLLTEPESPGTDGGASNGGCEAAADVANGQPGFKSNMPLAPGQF
Procedure: as §1, §2, §3, §4

[6] = molecular target: T3, human α1 adrenoceptor subtype D (Homo sapiens, UniProt P25100); experiment: Intracellular calcium assay (FLIPR Calcium 6), phenylephrine-stimulated CHO cells overexpressing α1D adrenoceptor; format: cell-based; conditions: for logEC50 of phenylephrine-induced calcium influx, α1D: 30 min at 37° C.
T3 construct: expressed in transfected cells; host or cells: CHO-K1
T3 sequence (P25100 1-572): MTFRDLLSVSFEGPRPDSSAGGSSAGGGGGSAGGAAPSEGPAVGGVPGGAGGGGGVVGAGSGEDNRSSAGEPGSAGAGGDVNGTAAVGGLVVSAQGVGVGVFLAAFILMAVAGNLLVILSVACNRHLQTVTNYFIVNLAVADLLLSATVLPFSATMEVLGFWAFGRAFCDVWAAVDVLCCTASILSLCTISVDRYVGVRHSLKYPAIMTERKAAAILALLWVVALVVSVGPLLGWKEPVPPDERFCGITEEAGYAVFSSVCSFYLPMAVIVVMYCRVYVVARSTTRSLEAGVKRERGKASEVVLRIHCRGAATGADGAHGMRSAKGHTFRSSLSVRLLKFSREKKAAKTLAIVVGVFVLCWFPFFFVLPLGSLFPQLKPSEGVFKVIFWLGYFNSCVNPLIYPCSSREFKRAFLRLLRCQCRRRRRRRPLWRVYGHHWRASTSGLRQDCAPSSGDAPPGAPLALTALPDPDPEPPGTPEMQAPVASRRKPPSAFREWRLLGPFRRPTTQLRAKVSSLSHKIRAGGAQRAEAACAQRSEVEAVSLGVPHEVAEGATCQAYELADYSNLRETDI
Procedure: as §1, §2, §3, §4

α1A adrenoceptor = molecular target: T4, α1A adrenoceptor (Homo sapiens, UniProt P35348); experiment: Radioligand displacement binding assay with [7-Methoxy-3H]-prazosin in α1A adrenoceptor transgenic CHO cells
T4 construct: expressed in transfected cells; host or cells: CHO
T4 sequence (P35348 1-466): T1 sequence (P35348 1-466)
Excerpt: We therefore explored whether SUL-150 could directly interact with the α1 adrenoceptor as a receptor antagonist.

[7] = in the presence of 10 μM compound
[8] = in the presence of 30 μM compound
[9] = in the presence of 100 μM compound

effect on PE-induced calcium transients, α1A subtype, in words [4]	logEC50 of phenylephrine-induced calcium influx, α1A ([4]; 10 μM compound)	logEC50 of phenylephrine-induced calcium influx, α1A ([4]; 30 μM compound)	logEC50 of phenylephrine-induced calcium influx, α1A ([4]; 100 μM compound)	effect on PE-induced calcium transients, α1B subtype, in words [5]	effect on PE-induced calcium transients, α1D subtype, in words [6]	Compound	logEC50 of phenylephrine-induced constriction responses [3, 7]	logEC50 of phenylephrine-induced constriction responses [3, 8]	logEC50 of phenylephrine-induced constriction responses [3, 9]	other results
						Cc1c(C)c2c(c(C)c1O)CCC(C)(C(=O)N1CCNCC1)O2 (racemic) [SUL-121, (6-hydroxy-2,5,7,8-tetramethylchroman-2-yl)(piperazin-1-yl)methanone]				LPS-induced airway neutrophilia [1]: dose-dependently reduced; LPS-induced attenuation of H2S production [1]: dose-dependently reduced; neutrophilia-related as well as unrelated ROS production [1]: dose-dependently reduced; nuclear translocation of the antioxidative response regulator Nrf2 [1]: inhibited; anti-oxidant effect [2]: very potent anti-oxidant effect
shifted dose response curves rightwards	−7.62 ± 0.03	−7.28 ± 0.03	−6.88 ± 0.03	shifted dose response curves rightwards	shifted dose response curves rightwards	Cc1c(C)c2c(c(C)c1O)CCC(C)(C(=O)N1CCNCC1)O2 (stereo not shown) [SUL-150, (6-hydroxy-2,5,7,8-tetramethylchroman-2-yl)(piperazin-1-yl)methanone]	−5.11 ± 0.09*	−5.06 ± 0.06*	−4.44 ± 0.09*	logEC50 of phenylephrine-induced calcium influx, α1B ([5]; 10 μM compound): −7.51 ± 0.08; logEC50 of phenylephrine-induced calcium influx, α1B ([5]; 30 μM compound): −7.24 ± 0.07; logEC50 of phenylephrine-induced calcium influx, α1B ([5]; 100 μM compound): −6.72 ± 0.08; logEC50 of phenylephrine-induced calcium influx, α1D ([6]; 10 μM compound): −7.37 ± 0.10; logEC50 of phenylephrine-induced calcium influx, α1D ([6]; 30 μM compound): −7.04 ± 0.06; logEC50 of phenylephrine-induced calcium influx, α1D ([6]; 100 μM compound): −6.80 ± 0.10; potency in displacing the radioligand, compared to SUL-151, in words (α1A adrenoceptor): significantly more potent
did not affect calcium transients	−8.09 ± 0.10	−8.09 ± 0.11	−7.98 ± 0.10	did not affect calcium transients	did not affect calcium transients	Cc1c(C)c2c(c(C)c1O)CC[C@@](C)(C(=O)N1CCNCC1)O2 [SUL-151, (2S)(6-hydroxy-2,5,7,8-tetramethylchroman-2-yl)(piperazin-1-yl)methanone]	−5.82 ± 0.05	−5.89 ± 0.04	−5.77 ± 0.04	concentrations at which [7-Methoxy-3H]-prazosin was displaced (α1A adrenoceptor): higher than 10 μM
